Test results from ChEMBL document CHEMBL2046361, “Ianthelliformisamines A-C, antibacterial bromotyrosine-derived metabolites from the marine sponge Suberea ianthelliformis” (J Nat Prod, 2012).
Converted amounts (≈) assume the structure as drawn. The source made the active and inactive calls. The calls are words filed in the database; no cut-off is given here.

Columns and labels:
[1] = test system: Pseudomonas aeruginosa; experiment: Antimicrobial activity against Pseudomonas aeruginosa PAO1 assessed as inhibition of cell viability at 350 uM after 18 hrs by spectrophotometry; format: functional, organism-based
[2] = test system: Staphylococcus aureus; experiment: Antimicrobial activity against Staphylococcus aureus 01A1095 assessed as inhibition of cell viability at 350 uM after 18 hrs by spectrophotometry; format: functional, organism-based
[3] = test system: Pseudomonas aeruginosa; experiment: Antimicrobial activity against Pseudomonas aeruginosa PAO1 assessed as inhibition of cell viability at 175 uM after 18 hrs by spectrophotometry; format: functional; conditions: PAO1, 18 h
[4] = test system: Staphylococcus aureus; experiment: Antimicrobial activity against Staphylococcus aureus 01A1095 assessed as inhibition of cell viability at 87.5 uM after 18 hrs by spectrophotometry; format: functional; conditions: 01A1095, 18 h
[5] = test system: Pseudomonas aeruginosa; experiment: Antimicrobial activity against Pseudomonas aeruginosa PAO1 assessed as inhibition of cell viability after 18 hrs by spectrophotometry; format: functional, organism-based; conditions: PAO1, 18 h
[6] = test system: Staphylococcus aureus; experiment: Antimicrobial activity against Staphylococcus aureus 01A1095 assessed as inhibition of cell viability after 18 hrs by spectrophotometry; format: functional, organism-based; conditions: 01A1095, 18 h
[7] = test system: Staphylococcus aureus; experiment: Antimicrobial activity against Staphylococcus aureus 01A1095 assessed as inhibition of cell viability at 175 uM after 18 hrs by spectrophotometry; format: functional; conditions: 01A1095, 18 h
[8] = test system: Pseudomonas aeruginosa; experiment: Antimicrobial activity against Pseudomonas aeruginosa PAO1 assessed as inhibition of cell viability at 87.5 uM after 18 hrs by spectrophotometry; format: functional; conditions: PAO1, 18 h

In the case of `CN(C)CCCOc1c(Br)cc(CCN(C)C)cc1Br`, the inhibition [1] is reported as “inactive” and the inhibition [2] is reported as “inactive”.
For `COC1=C(Br)[C@H](O)[C@@]2(C=C1Br)CC(C(=O)NCCCOc1c(Br)cc(CCN)cc1Br)=NO2` [ARAPLYSILLIN I], the inhibition at 175 µM [3] was 65% and the inhibition at 87.5 µM [4] was 60%.
Molecule `O=C(O)c1cn(C2CC2)c2cc(N3CCNCC3)c(F)cc2c1=O` [CIPROFLOXACIN] has an IC50 [5] of 0.038 µM and an IC50 [6] of 125 µM.
In the case of `COc1c(Br)cc(/C=C/C(=O)NCCCNCCCCNCCCN)cc1Br` [IANTHELLIFORMISAMINE A], the IC50 [5] is reported as 6.8 µM, the MIC [5] is reported as 35 µM (≈ 18.2 µg/mL) and the inhibition at 175 µM [7] is reported as 77%.
`COc1c(Br)cc(/C=C/C(=O)NCCCNCCCCN)cc1Br` [IANTHELLIFORMISAMINE B] was tested, and the inhibition at 87.5 µM [8] was 80%.
With `COc1c(Br)cc(/C=C/C(=O)NCCCNCCCCNCCCNC(=O)/C=C/c2cc(Br)c(OC)c(Br)c2)cc1Br` [IANTHELLIFORMISAMINE C] the IC50 [5] was 8.9 µM, the MIC [5] was 17.5 µM (≈ 14.7 µg/mL) and the IC50 [6] was 4.1 µM. For the same molecule, the MIC [6] was 8.75 µM (≈ 7.33 µg/mL).
